Test results from US20100137376A1 (priority 2007, published 2010).

Tests used:
Stagonospora nodorum = test: Test of Preventive Effect on Wheat Glume Blotch; type: in vivo; conditions: wheat (Shirogane), foliage application 500 ppm before inoculation, 18° C. 4 days dark high humidity then 4 days lighting
Experimental: (§1) In the following Test Examples, foliage application was accomplished by spraying each test solution over a different plant.
(§2) The controlling effect was evaluated by visually observing the area or lesion spots on each of test plants at the time of investigation and comparing the area of lesion spots on a plant treated with the present compound with that on an untreated plant.
Each of plastic pots was filled with sandy loam and sown with wheat (cultivar; Shirogane), followed by growing in a greenhouse for 10 days.
Each of the present compounds 1 and 3 to 37 was formulated into a flowable formulation according to Formulation Example 6. The flowable formulation was diluted to a predetermined concentration (500 ppm) with water, and foliage application of the dilution was carried out so that the dilution could adhere sufficiently to the surfaces of leaves of the grown wheat seedling.
The wheat which was applied by the dilution was air-dried and then inoculated by spraying a water suspension of spores of Stagonospora nodorum.
After the inoculation, the plant was held under darkness and high humidity conditions at 18° C. for 4 days and then under lighting conditions for 4 days, and then the area of lesion spots was investigated.

Septoria tritici = test: Test of Preventive Effect on Wheat Leaf Blotch; type: in vivo; conditions: wheat (Apogee), foliage application 500 ppm, inoculation after 3 or 4 days, 18° C. high humidity 3 days then lighting 14 to 18 days
Experimental: as §1, §2
Each of plastic pots was filled with sandy loam and sown with wheat (cultivar: Apogee), followed by growing in a greenhouse for 10 days. Each of the present compounds 49 to 52 was formulated into a flowable formulation according to Formulation Example 6. The flowable formulation was diluted to a predetermined concentration (500 ppm) with water, and foliage application of the dilution was carried out so that the dilution could adhere sufficiently to the surfaces of leaves of the grown wheat seedling. After the application, the plant was air-dried. After 3 or 4 days, the plant was inoculated by spraying a water suspension of spores of Septoria tritici. After the inoculation, the plant was held under high humidity conditions at 18° C. for 3 days and then under lighting condition for 14 to 18 days. Then, the area of lesion spots was investigated.

O=C(NCC1CCCCC1)c1ccnc(F)c1 [compound 4]
area of lesion spots on the treated plant relative to that on an untreated plant (Stagonospora nodorum): ≤ 30%

CC1CCCCC1NC(=O)c1cc(N)nc(F)c1 (centres unmarked) [compound 50]
area of lesion spots on the treated plant relative to that on an untreated plant (Septoria tritici): ≤ 30%
